pKd: −log10 of the molar value. Where two headings read alike, the source gives them in different places.
What was measured:
human CA-IX = molecular target: T1, human CA-IX (Homo sapiens, UniProt Q16790); assay: Surface Plasmon Resonance (SPR) binding kinetics to recombinant human CA-IX (Biacore 8K, single-cycle kinetics, 1:1 binding model)
T1 construct: purchased Acro CA9-H82E3
Experimental: (§1) G1. Surface Plasmon Resonance Assay Conditions for hCA-IX and hCA-XII
(§2) Surface Plasmon Resonance (SPR) experiments were conducted on a Biacore 8K instrument (Cytiva, Marlborough, MA) to determine the binding kinetics of the compound to recombinant human CA-IX (Acro, CA9-H82E3) and CA-XII (Creative BioMart, CA12-261H) proteins. The ligands were diluted to 10 μg/mL in PBS-P+ buffer (20 mM phosphate buffer, pH 7.4, with 2.7 mM KCl, 137 mM NaCl, and 0.05% Tween 20) and captured on Series S Streptavidin Sensor Chips (Cytiva, 29699621) to 1200-1800 response units (RU) using a flow rate of 5 μL/min and injection times of 180 seconds for human CA-IX and 75 seconds for human CA-XII. Analyte binding was evaluated using a single-cycle kinetics method over 9 analyte concentrations (100-0.39 nM) in PBS-P+ buffer with 1% DMSO using a 50 μL/min. flow rate, 120 second association time, and 1200 second dissociation time. The flow cell temperature was set to 25° C. Analyte binding curves were fit to a 1:1 binding kinetic model in Biacore Insight Evaluation software (version 4.0.8.20368) following reference flow cell subtraction and DMSO correction to derive the association and dissociation binding constants.

human CA-XII = molecular target: T2, human CA-XII (Homo sapiens, UniProt O43570); assay: Surface Plasmon Resonance (SPR) binding kinetics to recombinant human CA-XII (Biacore 8K, single-cycle kinetics, 1:1 binding model)
T2 construct: purchased Creative BioMart CA12-261H
T2 sequence (O43570 25-354): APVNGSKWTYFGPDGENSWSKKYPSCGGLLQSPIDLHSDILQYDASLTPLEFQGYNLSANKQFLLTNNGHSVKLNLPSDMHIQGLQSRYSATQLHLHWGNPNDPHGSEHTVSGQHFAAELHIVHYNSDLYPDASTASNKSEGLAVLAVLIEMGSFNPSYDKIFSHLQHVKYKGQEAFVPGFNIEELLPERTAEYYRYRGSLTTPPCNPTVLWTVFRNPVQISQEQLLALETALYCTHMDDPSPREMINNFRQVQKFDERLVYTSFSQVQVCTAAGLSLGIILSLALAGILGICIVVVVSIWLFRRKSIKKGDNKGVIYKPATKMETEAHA
Experimental: as §1, §2

[1] = Chelated Metal: Lu-175; SPR, 25° C., pH 7.4; read-out: CAIX KD
[2] = Chelated Metal: Lu-175, 25° C., pH 7.4, read-out: CAXII KD
[3] = read-out: CAIX KD; Chelated Metal: Lu-175; SPR, 25° C., pH 7.4
[4] = read-out: CAXII KD, Chelated Metal: Lu-175, 25° C., pH 7.4
[5] = Chelated Metal: None; SPR, 25° C., pH 7.4; read-out: CAIX KD
[6] = KD ratio CAXII/CAIX; Chelated Metal: None
[7] = Chelated Metal: None, 25° C., pH 7.4, read-out: CAXII KD

Row | SMILES | pKd (human CA-IX; [1]) | pKd (human CA-XII; [2]) | pKd (human CA-IX; [3]) | pKd (human CA-XII; [4]) | also measured
1 | NS(=O)(=O)c1nnc(NC(=O)CCCc2nnn(CCCC[C@H](NC(=O)C[C@H](Nc3cc(NC(=O)c4n[nH]c5ccc(O)cc45)cc(C(=O)O)c3)C(=O)O)C(=O)NCCOCCOCCNC(=O)CN3CCN(CC(=O)O)CCN(CC(=O)O)CCN(CC(=O)O)CC3)c2C(=O)O)s1.[Lu+3] [Compound 102.8] | > 9.00 | 8.60 to 9.00 |  |  | 
2 | CC(CCC(=O)N1CCC(C(=O)O)(C(=O)NCC(=O)N[C@@H](CCCCn2cc(CCCC(=O)Nc3nnc(S(N)(=O)=O)s3)nn2)C(=O)NCCOCCOCCNC(=O)CN2CCN(CC(=O)O)CCN(CC(=O)O)CCN(CC(=O)O)CC2)CC1)(c1ccc(O)cc1)c1ccc(O)cc1.[Lu+3] [Compound 102] |  |  | 8.60 to 9.00 | < 8.00 | 
3 | CC(CCC(=O)N[C@@H](CC(=O)N[C@@H](CCC(=O)NC1(C(=O)NCCOCCOCCNC(=O)CN2CCN(CC(=O)O)CCN(CC(=O)O)CCN(CC(=O)O)CC2)CN(C(=O)Cn2cc(CCCC(=O)Nc3nnc(S(N)(=O)=O)s3)nn2)C1)C(=O)O)C(=O)O)(c1ccc(O)cc1)c1ccc(O)cc1.[Lu+3] [Compound 103.1] | 8.60 to 9.00 | 8.00 to 8.60 |  |  | 
4 | CC(CCC(=O)N[C@@H](CC(=O)N[C@@H](CCC(=O)NC1(C(=O)NCCOCCOCCNC(=O)CN2CCN(CC(=O)O)CCN(CC(=O)O)CCN(CC(=O)O)CC2)CCN(C(=O)Cn2cc(CCCC(=O)Nc3nnc(S(N)(=O)=O)s3)nn2)CC1)C(=O)O)C(=O)O)(c1ccc(O)cc1)c1ccc(O)cc1.[Lu+3] [Compound 103.2] | 8.60 to 9.00 | 8.00 to 8.60 |  |  | 
5 | CC(CCC(=O)N[C@@H](CC(=O)N[C@@H](CC(=O)NC1(C(=O)NCCOCCOCCNC(=O)CN2CCN(CC(=O)O)CCN(CC(=O)O)CCN(CC(=O)O)CC2)CN(C(=O)Cn2cc(CCC(=O)Nc3nnc(S(N)(=O)=O)s3)nn2)C1)C(=O)O)C(=O)O)(c1ccc(O)cc1)c1ccc(O)cc1.[Lu+3] [Compound 103.3] | 8.00 to 8.60 | < 8.00 |  |  | 
6 | CC(CCC(=O)N[C@@H](CC(=O)N[C@@H](CC(=O)NC1(C(=O)NCCOCCOCCNC(=O)CN2CCN(CC(=O)O)CCN(CC(=O)O)CCN(CC(=O)O)CC2)CN(C(=O)Cn2cc(CCCCC(=O)Nc3nnc(S(N)(=O)=O)s3)nn2)C1)C(=O)O)C(=O)O)(c1ccc(O)cc1)c1ccc(O)cc1.[Lu+3] [Compound 103.4] | 8.00 to 8.60 | 8.00 to 8.60 |  |  | 
7 | CC(CCC(=O)N[C@@H](CC(=O)N[C@@H](CC(=O)NC1(C(=O)NCCOCCOCCNC(=O)CN2CCN(CC(=O)O)CCN(CC(=O)O)CCN(CC(=O)O)CC2)CN(C(=O)Cn2cc(CCCC(=O)Nc3nnc(S(N)(=O)=O)s3)nn2)C1)C(=O)O)C(=O)O)(c1ccc(O)cc1)c1ccc(O)cc1.[Lu+3] [Compound 103] |  |  | 8.60 to 9.00 | 8.00 to 8.60 | 
8 | CC(CCC(=O)N[C@@H](CC(=O)N[C@@H](CC(=O)N1CCN(C(=O)CN2CCN(CC(=O)O)CCN(CC(=O)O)CCN(CC(=O)O)CC2)C[C@H]1CCCCn1cc(C23CCC(C(=O)Nc4nnc(S(N)(=O)=O)s4)(CC2)C3)nn1)C(=O)O)C(=O)O)(c1ccc(O)cc1)c1ccc(O)cc1 [Compound 104.1] |  |  |  |  | pKd (human CA-IX; [5]): > 9.00; Ratio (CAXII/CAIX) (human CA-IX; [6]): * (1 < * < 5); pKd (human CA-XII; [7]): > 9.00
9 | CC(CCC(=O)N[C@@H](CC(=O)N[C@@H](CC(=O)N1CCN(C(=O)CN2CCN(CC(=O)O)CCN(CC(=O)O)CCN(CC(=O)O)CC2)C[C@@H]1CCCCn1cc(C23CCC(C(=O)Nc4nnc(S(N)(=O)=O)s4)(CC2)C3)nn1)C(=O)O)C(=O)O)(c1ccc(O)cc1)c1ccc(O)cc1 [Compound 104.2] |  |  |  |  | pKd (human CA-IX; [5]): > 9.00; Ratio (CAXII/CAIX) (human CA-IX; [6]): * (1 < * < 5); pKd (human CA-XII; [7]): > 9.00
10 | CC(CCC(=O)N[C@@H](CC(=O)N[C@@H](CC(=O)N1CCN(C(=O)CN2CCN(CC(=O)O)CCN(CC(=O)O)CCN(CC(=O)O)CC2)CC1CCCCn1cc(CCCC(=O)Nc2nnc(S(N)(=O)=O)s2)nn1)C(=O)O)C(=O)O)(c1ccc(O)cc1)c1ccc(O)cc1.[Lu+3] (stereo partly drawn) [Compound 104] |  |  | 8.60 to 9.00 | 8.00 to 8.60 | 
11 | CC(CCC(=O)N[C@@H](CC(=O)N[C@@H](CC(=O)N1CCN(C(=O)CN2CCN(CC(=O)O)CCN(CC(=O)O)CCN(CC(=O)O)CC2)C[C@H]1C(=O)NCCn1cc(C23CC(C(=O)Nc4nnc(S(N)(=O)=O)s4)(C2)C3)nn1)C(=O)O)C(=O)O)(c1ccc(O)cc1)c1ccc(O)cc1.[Lu+3] [Compound 106] |  |  | > 9.00 | 8.00 to 8.60 | 

Source: patent publication US20260325685A1, “Radiopharmaceutical Compositions Targeting Carbonic Anhydrase IX and Uses Thereof” (RayzeBio, Inc., priority 2023, published 2026)
